Data as given in the OligoGym collection.
Several values for one entry are separate records, joined by “and”; a condition that tells them apart may be missing. Equal values may be shown once. HELM strings list units from the 5' end as sugar, base in round brackets, then linkage (d deoxyribose, r ribose, m 2'-O-methyl, p phosphodiester). Methylation of C is not given here. [moe] = 2'-O-(2-methoxyethyl) (MOE); [cEt] = constrained ethyl (cEt); [sp] = phosphorothioate linkage

Molecular target: HBV
Settings: ASO

Substance | target mRNA inhibition (HepG2, 0.07 µM) | also measured
RNA1{[moe](C)[sp].[moe](G)[sp].[moe](T)[sp].[moe](G)[sp].d(C)[sp].d(A)[sp].d(G)[sp].d(A)[sp].d(G)[sp].d(G)[sp].d(T)[sp].d(G)[sp].d(A)[sp].[moe](A)[sp].[moe](G)[sp].[moe](C)}$$$$V2.0 | 46% and 44% | –
RNA1{[moe](C)[sp].[moe](G)[sp].[moe](T)[sp].d(G)[sp].d(C)[sp].d(A)[sp].d(G)[sp].d(A)[sp].d(G)[sp].d(G)[sp].d(T)[sp].d(G)[sp].[moe](A)[sp].[moe](A)[sp].[moe](G)[sp].[moe](C)[sp].[moe](G)}$$$$V2.0 | 70% and 64% | –
RNA1{[moe](C)[sp].[moe](T)[sp].[moe](A)[sp].d(G)[sp].d(T)[sp].d(A)[sp].d(A)[sp].d(A)[sp].d(C)[sp].d(T)[sp].d(G)[sp].d(A)[sp].d(G)[sp].[cEt](C)[sp].[cEt](C)[sp].[cEt](A)}$$$$V2.0 | 71% and 79% | –
RNA1{[moe](C)[sp].[moe](T)[sp].[moe](G)[sp].[moe](G)[sp].[moe](A)[sp].d(G)[sp].d(C)[sp].d(C)[sp].d(A)[sp].d(C)[sp].d(C)[sp].d(A)[sp].d(G)[sp].d(C)[sp].[moe](A)[sp].[moe](G)}$$$$V2.0 | 46% and 53% | –
RNA1{[moe](C)[sp].[moe](T)[sp].[moe](G)[sp].[moe](G)[sp].d(A)[sp].d(G)[sp].d(C)[sp].d(C)[sp].d(A)[sp].d(C)[sp].d(C)[sp].d(A)[sp].d(G)[sp].[moe](C)[sp].[moe](A)[sp].[moe](G)[sp].[moe](G)}$$$$V2.0 | 79% and 76% | target mRNA inhibition (HepG2, 0.0092593 µM): 0%; target mRNA inhibition (HepG2, 0.0277778 µM): 24%; target mRNA inhibition (HepG2, 0.0833333 µM): 65%; target mRNA inhibition (HepG2, 0.25 µM): 79%
RNA1{[moe](C)[sp].[moe](T)[sp].d(A)[sp].d(G)[sp].d(T)[sp].d(A)[sp].d(A)[sp].d(A)[sp].d(C)[sp].d(T)[sp].d(G)[sp].[moe](A)[sp].[moe](G)[sp].[moe](C)[sp].[moe](C)[sp].[moe](A)}$$$$V2.0 | 52% and 34% | –
RNA1{[moe](C)[sp].[moe](T)[sp].d(G)[sp].d(G)[sp].d(A)[sp].d(G)[sp].d(C)[sp].d(C)[sp].d(A)[sp].d(C)[sp].d(C)[sp].[moe](A)[sp].[moe](G)[sp].[moe](C)[sp].[moe](A)[sp].[moe](G)}$$$$V2.0 | 57% and 53% | –
RNA1{[moe](G)[sp].[cEt](A)[sp].[cEt](A)[sp].d(C)[sp].d(A)[sp].d(A)[sp].d(A)[sp].d(T)[sp].d(G)[sp].d(G)[sp].d(C)[sp].d(A)[sp].d(C)[sp].[cEt](T)[sp].[cEt](A)[sp].[moe](G)}$$$$V2.0 | 72% and 61% | –
RNA1{[moe](G)[sp].[cEt](A)[sp].[cEt](A)[sp].d(C)[sp].d(T)[sp].d(G)[sp].d(G)[sp].d(A)[sp].d(G)[sp].d(C)[sp].d(C)[sp].d(A)[sp].d(C)[sp].[cEt](C)[sp].[cEt](A)[sp].[moe](G)}$$$$V2.0 | 65% and 51% | –
RNA1{[moe](G)[sp].[cEt](A)[sp].[cEt](A)[sp].d(G)[sp].d(C)[sp].d(G)[sp].d(A)[sp].d(A)[sp].d(G)[sp].d(T)[sp].d(G)[sp].d(C)[sp].d(A)[sp].[cEt](C)[sp].[cEt](A)[sp].[moe](C)}$$$$V2.0 | 75% and 78% | –
RNA1{[moe](G)[sp].[cEt](A)[sp].[cEt](T)[sp].d(G)[sp].d(A)[sp].d(G)[sp].d(G)[sp].d(C)[sp].d(A)[sp].d(T)[sp].d(A)[sp].d(G)[sp].d(C)[sp].[cEt](A)[sp].[cEt](G)[sp].[moe](C)}$$$$V2.0 | 60% and 59% | –
RNA1{[moe](G)[sp].[cEt](A)[sp].d(G)[sp].d(G)[sp].d(T)[sp].d(G)[sp].d(A)[sp].d(A)[sp].d(G)[sp].d(C)[sp].d(G)[sp].d(A)[sp].[cEt](A)[sp].[moe](G)[sp].[cEt](T)[sp].[moe](G)}$$$$V2.0 | 75% and 82% | target mRNA inhibition (HepG2, 0.0092593 µM): 17%; target mRNA inhibition (HepG2, 0.0277778 µM): 40%; target mRNA inhibition (HepG2, 0.0833333 µM): 65%; target mRNA inhibition (HepG2, 0.25 µM): 79%
RNA1{[moe](G)[sp].[cEt](A)[sp].d(G)[sp].d(T)[sp].d(T)[sp].d(C)[sp].d(C)[sp].d(G)[sp].d(C)[sp].d(A)[sp].d(G)[sp].d(T)[sp].[cEt](A)[sp].[moe](T)[sp].[cEt](G)[sp].[moe](G)}$$$$V2.0 | 75% and 68% | –
RNA1{[moe](G)[sp].[cEt](C)[sp].[cEt](A)[sp].d(C)[sp].d(T)[sp].d(A)[sp].d(G)[sp].d(T)[sp].d(A)[sp].d(A)[sp].d(A)[sp].d(C)[sp].d(T)[sp].[cEt](G)[sp].[cEt](A)[sp].[moe](G)}$$$$V2.0 | 73% and 81% | target mRNA inhibition (HepG2, 0.0092593 µM): 8%; target mRNA inhibition (HepG2, 0.0277778 µM): 24%; target mRNA inhibition (HepG2, 0.0833333 µM): 65%; target mRNA inhibition (HepG2, 0.25 µM): 87%
RNA1{[moe](G)[sp].[cEt](C)[sp].d(A)[sp].d(G)[sp].d(T)[sp].d(A)[sp].d(T)[sp].d(G)[sp].d(G)[sp].d(A)[sp].d(T)[sp].d(C)[sp].[cEt](G)[sp].[moe](G)[sp].[cEt](C)[sp].[moe](A)}$$$$V2.0 | 83% and 90% | target mRNA inhibition (HepG2, 0.0092593 µM): 25%; target mRNA inhibition (HepG2, 0.0277778 µM): 44%; target mRNA inhibition (HepG2, 0.0833333 µM): 77%; target mRNA inhibition (HepG2, 0.25 µM): 89%
RNA1{[moe](G)[sp].[cEt](G)[sp].[cEt](C)[sp].d(A)[sp].d(G)[sp].d(A)[sp].d(G)[sp].d(G)[sp].d(T)[sp].d(G)[sp].d(A)[sp].d(A)[sp].d(A)[sp].[cEt](A)[sp].[cEt](A)[sp].[moe](G)}$$$$V2.0 | 50% and 49% | –

Substance | target mRNA inhibition (HepG2, 0.07 µM) | also measured
RNA1{[moe](G)[sp].[cEt](G)[sp].[cEt](C)[sp].d(A)[sp].d(T)[sp].d(A)[sp].d(G)[sp].d(C)[sp].d(A)[sp].d(G)[sp].d(C)[sp].d(A)[sp].d(G)[sp].[cEt](G)[sp].[cEt](A)[sp].[moe](T)}$$$$V2.0 | 75% and 64% | –
RNA1{[moe](G)[sp].[cEt](G)[sp].d(T)[sp].d(G)[sp].d(A)[sp].d(A)[sp].d(G)[sp].d(C)[sp].d(G)[sp].d(A)[sp].d(A)[sp].d(G)[sp].[cEt](T)[sp].[moe](G)[sp].[cEt](C)[sp].[moe](A)}$$$$V2.0 | 80% and 81% | target mRNA inhibition (HepG2, 0.0092593 µM): 22%; target mRNA inhibition (HepG2, 0.0277778 µM): 51%; target mRNA inhibition (HepG2, 0.0833333 µM): 82%; target mRNA inhibition (HepG2, 0.25 µM): 88%
RNA1{[moe](G)[sp].[cEt](T)[sp].[cEt](C)[sp].d(C)[sp].d(A)[sp].d(C)[sp].d(C)[sp].d(A)[sp].d(C)[sp].d(G)[sp].d(A)[sp].d(G)[sp].d(T)[sp].[cEt](C)[sp].[cEt](T)[sp].[moe](A)}$$$$V2.0 | 55% and 56% | –
RNA1{[moe](G)[sp].[cEt](T)[sp].[cEt](T)[sp].d(C)[sp].d(C)[sp].d(G)[sp].d(C)[sp].d(A)[sp].d(G)[sp].d(T)[sp].d(A)[sp].d(T)[sp].d(G)[sp].[cEt](G)[sp].[cEt](A)[sp].[moe](T)}$$$$V2.0 | 69% and 72% | –
RNA1{[moe](G)[sp].[cEt](T)[sp].d(T)[sp].d(C)[sp].d(C)[sp].d(G)[sp].d(C)[sp].d(A)[sp].d(G)[sp].d(T)[sp].d(A)[sp].d(T)[sp].[cEt](G)[sp].[moe](G)[sp].[cEt](A)[sp].[moe](T)}$$$$V2.0 | 76% and 53% | –
RNA1{[moe](G)[sp].[moe](A)[sp].[moe](A)[sp].[moe](C)[sp].[moe](T)[sp].d(G)[sp].d(G)[sp].d(A)[sp].d(G)[sp].d(C)[sp].d(C)[sp].d(A)[sp].d(C)[sp].d(C)[sp].[moe](A)[sp].[moe](G)}$$$$V2.0 | 46% and 39% | –
RNA1{[moe](G)[sp].[moe](A)[sp].[moe](A)[sp].[moe](G)[sp].[moe](C)[sp].[moe](G)[sp].d(A)[sp].d(A)[sp].d(G)[sp].d(T)[sp].d(G)[sp].d(C)[sp].d(A)[sp].d(C)[sp].d(A)[sp].[moe](C)[sp].[moe](G)}$$$$V2.0 | 87% and 66% | –
RNA1{[moe](G)[sp].[moe](A)[sp].[moe](A)[sp].[moe](G)[sp].[moe](T)[sp].[moe](C)[sp].d(C)[sp].d(A)[sp].d(C)[sp].d(C)[sp].d(A)[sp].d(C)[sp].d(G)[sp].d(A)[sp].d(G)[sp].[moe](T)[sp].[moe](C)}$$$$V2.0 | 42% | –
RNA1{[moe](G)[sp].[moe](A)[sp].[moe](A)[sp].[moe](G)[sp].[moe](T)[sp].d(C)[sp].d(C)[sp].d(A)[sp].d(C)[sp].d(C)[sp].d(A)[sp].d(C)[sp].d(G)[sp].d(A)[sp].[moe](G)[sp].[moe](T)[sp].[moe](C)}$$$$V2.0 | 5% and 2% | –
RNA1{[moe](G)[sp].[moe](A)[sp].[moe](A)[sp].d(C)[sp].d(C)[sp].d(A)[sp].d(C)[sp].d(T)[sp].d(G)[sp].d(A)[sp].d(A)[sp].d(C)[sp].[moe](A)[sp].[moe](A)[sp].[moe](A)[sp].[moe](T)[sp].[moe](G)}$$$$V2.0 | 39% and 47% | –
RNA1{[moe](G)[sp].[moe](A)[sp].[moe](A)[sp].d(C)[sp].d(C)[sp].d(A)[sp].d(C)[sp].d(T)[sp].d(G)[sp].d(A)[sp].d(A)[sp].d(C)[sp].[moe](A)[sp].[moe](A)[sp].[moe](A)[sp].[moe](T)}$$$$V2.0 | 46% and 42% | –
RNA1{[moe](G)[sp].[moe](A)[sp].[moe](A)[sp].d(C)[sp].d(C)[sp].d(A)[sp].d(C)[sp].d(T)[sp].d(G)[sp].d(A)[sp].d(A)[sp].d(C)[sp].d(A)[sp].[cEt](A)[sp].[cEt](A)[sp].[cEt](T)}$$$$V2.0 | 30% and 48% | –
RNA1{[moe](G)[sp].[moe](A)[sp].[moe](A)[sp].d(C)[sp].d(T)[sp].d(G)[sp].d(G)[sp].d(A)[sp].d(G)[sp].d(C)[sp].d(C)[sp].d(A)[sp].d(C)[sp].[cEt](C)[sp].[cEt](A)[sp].[cEt](G)}$$$$V2.0 | 59% and 58% | –
RNA1{[moe](G)[sp].[moe](A)[sp].[moe](A)[sp].d(G)[sp].d(C)[sp].d(G)[sp].d(A)[sp].d(A)[sp].d(G)[sp].d(T)[sp].d(G)[sp].d(C)[sp].[moe](A)[sp].[moe](C)[sp].[moe](A)[sp].[moe](C)}$$$$V2.0 | 52% and 50% | –
RNA1{[moe](G)[sp].[moe](A)[sp].[moe](A)[sp].d(G)[sp].d(C)[sp].d(G)[sp].d(A)[sp].d(A)[sp].d(G)[sp].d(T)[sp].d(G)[sp].d(C)[sp].d(A)[sp].[cEt](C)[sp].[cEt](A)[sp].[cEt](C)}$$$$V2.0 | 67% | –
